{"source": "paper PMC9033093", "about": "“Antiplasmodial Activity of Vachellia xanthophloea (Benth.) P.J.H. Hurter (African Fever Tree) and Its Constituents” (Pharmaceuticals, 2022)", "key": {"[1]": {"system": "Plasmodium falciparum 3D7 clone", "assay": "In vitro antiplasmodial activity, parasite lactate dehydrogenase (pLDH) assay", "settings": "for viability at 10 µg/mL: 3D7, read-out: Viability % ± SD at 10 μg/mL; for viability at 50 µg/mL: 3D7, read-out: Viability % ± SD at 50 μg/mL", "description": "Malaria parasites (Plasmodium falciparum 3D7 clone) were maintained in an RPMI 1640 medium containing 2 mM L-glutamine and 25 mM Hepes (Lonza). The medium was further supplemented with 5% Albumax II, 20 mM glucose, 0.65 mM hypoxanthine, 60 µg/mL gentamycin, and 2–4% haematocrit human red blood cells. The parasites were cultured at 37 °C under an atmosphere of 5% CO2, 5% O2, and 90% N2 in a sealed T75 culture flask.\nFor the antiplasmodial activity, the extracts and isolated compounds were first tested at 50 µg/mL and 10 µg/mL in duplicate experiments. IC50 values determined from the dose-response curves were evaluated for the compounds only showing < 50% viability without cytotoxicity at 10 µg/mL. For the IC50 screening, a range of concentrations of the extracts and compounds starting from 100 µg/mL and extended by 3-fold serial dilution were tested in triplicate and standard deviations (SD) were derived where applicable. The parasite viability was determined by measuring the activity of parasite lactate dehydrogenase (pLDH) as described by Makler et al.. Serial dilutions of the extracts and compounds were added to the in vitro cultures of P. falciparum (3D7 clone) in 96-well plates (1% haematocrit, 2% parasitaemia) and incubated for 48 h. To 125 µL solutions containing a mixture of Malstat (0.18 M lactic acid, 0.13 mM 3-acetylpyridine adenine dinucleotide, 0.16% Triton X-100, and 44 mM Tris, pH 9) and NBT/PES (0.39 mM nitro blue tetrazolium and 0.05 mM phenazine ethosulfate), 20 µL of the incubated culture was then added in a fresh 96-well plate. […] The % parasite viability, as indicated by the pLDH activity in the treated wells compared with the untreated controls, was calculated from the absorbance values for each compound/extract. The parasitised RBCs in the absence of test compounds/drug were taken as the untreated control with 100% viability."}, "[2]": {"assay": "In vitro cytotoxicity, resazurin assay", "type": "cell-based, human", "settings": "human, 24 h; for viability at 24 h, 10 µg/mL: HeLa cell viability at 10 µg/mL, read-out: Viability % ± SD at 10 μg/mL; for viability at 24 h, 50 µg/mL: HeLa cell viability at 50 µg/mL, read-out: Viability % ± SD at 50 μg/mL", "description": "(§1) The cytotoxicity of the compounds/extracts against HeLa (human cervix adenocarcinoma) cells (Cellonex, South Africa) was evaluated by plating the cells at a density of 2 × 10^4 cells per well in a DMEM medium supplemented with 10% foetal bovine serum and penicillin/streptomycin/amphotericin B antibiotics in 96-well plates. After incubating for 24 h at 37 °C in a humidified 5% CO2 incubator, the test samples were added at a final concentration of 50 µg/mL or 10 µg/mL to the cells in triplicate wells (final volume per well was 200 µL) and further incubated or 24 h. Subsequently, a 20 µL resazurin stock solution (0.6 mM resazurin in phosphate-buffered saline) was added to each well and, after a 4 h incubation, the fluorescence (Exc560/Emm590) was measured on a Spectramax M3 plate reader. The percentage cell viability in the treated wells relative to the wells containing the untreated control cells was calculated from the fluorescence values after subtracting the background readings obtained from the empty wells. Emetine was used as the positive control."}, "[3]": {"system": "HeLa (human cervix adenocarcinoma) cells", "assay": "In vitro cytotoxicity, resazurin assay", "type": "cell-based", "settings": "for IC50: Homo sapiens, HeLa, positive control", "description": "as §1"}, "[4]": {"system": "P. falciparum", "settings": "cited from earlier work"}}, "note": "“And” between values parts separate entries of the source, which are not always exact repeats. Equal entries are not always repeated. Where two headings read alike, the source gives them in different places."}
{"compound": "COc1c(-c2ccc(O)c(O)c2)oc2cc(O)cc(O)c2c1=O", "note": "[3-O-Methylquercetin (4), 3-O-methylquercetin]", "values": [{"measurement": "viability at 10 µg/mL", "setting": "[1]", "result": "82.9 ± 3", "unit": "%"}, {"measurement": "viability at 50 µg/mL", "setting": "[1]", "result": "21.9 ± 1.5", "unit": "%"}, {"measurement": "viability at 24 h, 10 µg/mL", "setting": "[2]; HeLa cells", "result": "57.9 ± 5.2", "unit": "%"}, {"measurement": "viability at 24 h, 50 µg/mL", "setting": "[2]; HeLa cells", "result": "4.5 ± 0.1", "unit": "%"}]}
{"compound": "CCN(CC)CCCC(C)Nc1ccnc2cc(Cl)ccc12", "note": "(stereo not shown) [Chloroquine, reference compound]", "values": [{"measurement": "IC50", "setting": "[1]; 3D7, 48 h", "result": 14, "unit": "nM"}, {"measurement": "IC50", "setting": "[1]; 3D7, read-out: IC50 values ranged", "result": "10 to 50", "unit": "nM"}]}
{"compound": "O=C1c2c(O)cc(O)cc2O[C@H](c2ccc(O)c(O)c2)[C@H]1O", "note": "[Dihydroquercetin (6), dihydroquercetin]", "values": [{"measurement": "IC50", "setting": "[1]; 3D7, 48 h", "result": "27.6 µg/mL and 90.7 µM"}]}
{"compound": "CC[C@H]1CN2CCc3cc(OC)c(OC)cc3[C@@H]2C[C@@H]1C[C@H]1NCCc2cc(OC)c(OC)cc21", "note": "[Emetine, reference compound]", "values": [{"measurement": "IC50", "setting": "[3]; printed in the 10 µg/mL column", "result": 40, "unit": "nM"}, {"measurement": "IC50", "setting": "[3]; printed in the 50 µg/mL column", "result": 33, "unit": "nM"}]}
{"compound": "O=c1c(O)c(-c2ccc(O)cc2)oc2cc(O)cc(O)c12", "note": "[Kaempferol (10), kaempferol]", "values": [{"measurement": "IC50", "setting": "[1]; 3D7, 48 h", "result": "25 µg/mL and 87.3 µM"}, {"measurement": "antiplasmodial activity of common dietary flavonoids (reported)", "setting": "[4]", "result": "moderate to weak antiplasmodial activity"}]}
{"compound": "COC(=O)c1cc(O)c(O)c(O)c1", "note": "[Methyl gallate (9), methyl gallate]", "values": [{"measurement": "IC50", "setting": "[1]; 3D7, 48 h", "result": "1.2 µg/mL and 6.52 µM"}, {"measurement": "viability at 10 µg/mL", "setting": "[1]", "result": "26.9 ± 0.7", "unit": "%"}, {"measurement": "viability at 50 µg/mL", "setting": "[1]", "result": "17.7 ± 1.5", "unit": "%"}, {"measurement": "antiplasmodial activity and selectivity (reported by other investigators)", "setting": "[4]", "result": "good selective antiplasmodial activity"}, {"measurement": "combination with quinine", "setting": "[4]", "result": "act in synergy with quinine"}, {"measurement": "Viability % ± SD at 10 μg/mL", "setting": "[3]; HeLa cell viability at 10 µg/mL, 24 h", "result": "68.6 ± 2.0", "unit": "%"}, {"measurement": "viability at 24 h, 10 µg/mL", "setting": "[2]", "result": 68, "unit": "%"}, {"measurement": "viability at 24 h, 50 µg/mL", "setting": "[2]", "result": "2 ± 0.2", "unit": "%"}]}
{"compound": "O=c1cc(-c2ccc(O)cc2)oc2cc(O)cc(O)c12", "note": "[apigenin]", "values": [{"measurement": "antiplasmodial activity of common dietary flavonoids (reported)", "setting": "[4]", "result": "moderate to weak antiplasmodial activity"}]}
{"compound": "Oc1cc(O)c2c(c1)O[C@H](c1cc(O)c(O)c(O)c1)[C@@H](O)C2", "note": "[gallocatechin (8), gallocatechin]", "values": [{"measurement": "activity against P. falciparum (previously reported)", "setting": "[4]", "result": "inactive"}]}
{"compound": "C[C@]1(O)CC[C@H]2[C@@H]3CCC4=CC(=O)CC[C@@H]4[C@H]3CC[C@@]21C", "note": "[lutenin, reference compound]", "values": [{"measurement": "antiplasmodial activity of common dietary flavonoids (reported)", "setting": "[4]", "result": "moderate to weak antiplasmodial activity"}]}
{"compound": "O=c1c(O)c(-c2cc(O)c(O)c(O)c2)oc2cc(O)cc(O)c12", "note": "[myricetin, reference compound]", "values": [{"measurement": "antiplasmodial activity of common dietary flavonoids (reported)", "setting": "[4]", "result": "moderate to weak antiplasmodial activity"}]}
{"compound": "O=c1c(O)c(-c2ccc(O)c(O)c2)oc2cc(O)cc(O)c12", "note": "[quercetin]", "values": [{"measurement": "antiplasmodial activity of common dietary flavonoids (reported)", "setting": "[4]", "result": "moderate to weak antiplasmodial activity"}]}
{"compound": "pinoresinol [Pinoresinol (12)]", "values": [{"measurement": "activity against P. falciparum (previously reported)", "setting": "[4]", "result": "inactive"}]}
